The text below walks through data of patent US12290513B2, “Therapeutic methods and compositions for treating movement disorders” (Vima Therapeutics, Inc., priority 2023, dated 2025).

Data set [1] concerns the target human muscarinic receptor M1 (Homo sapiens, UniProt P11229). The experiment in a line: cell-based. The protocol: (§1) All cells used in the following experiments were clonal populations of Chinese Hamster Ovary (CHO) cells stably expressing the corresponding human muscarinic receptor, except for the M4 cell line, which was a population of CHO cells transiently transfected with the human M4 receptor. […] The procedure was as follows: • 1. Cells were thawed and cultured in cell culture medium (DMEM/F12 containing 10% FBS, 1× penicillin-streptomycin and 600 μg/ml hygromycin B) at 37° C. in 5% (v/v) CO2. • 2. One day before the assays, cells were detached using TrypLE™ and counted using a cell-counter. […] 12,000 cells/well were seeded in 30 μl/well culture medium in a 384-well cell plate and incubated overnight at 37C, 5% (v/v) CO2. • 4. On the assay day, 2× dye solution was prepared following the manual of the FLIPR® Calcium 6 Assay Kit: • i. The dye was diluted with assay buffer (20 mM HEPES in 1× HBSS, PH 7.4); • ii. Probenecid was added to a final concentration of 5 mM; • iii. […] were vortexed vigorously for 1-2 minutes. • 5. Medium was removed from the cell plate by flicking the cell plate on paper towels. • 6. 10 μl of assay buffer and 10 μl of 2× dye solution was added to each well of the cell plate. • 7. The cell plate was shaken on a plate shaker at 600 rpm for 2 minutes and incubated at 37° C. for 2 hours followed by an additional 15-minute incubation at 25° C. • 8. The test compounds were next prepared in assay buffer: • a. All compounds were diluted to the required concentration with DMSO and added to a 384-well compound plate; • b. All compounds were serially diluted; • 1. Starting with 10 mM concentration of each test compound, all samples were serially diluted in 3-fold dilutions. • 2. 90 nl/well of each compound was transferred from the source plate to a 384-well compound plate using an Echo liquid handler. • 3. 30 μl/well assay buffer was added to the compound plate; • c. The plates were mixed on a plate shaker for 2 mins; • 9. The cell plate, compound plate and pipette tips were placed in the FLIPR screening system and 10 μl of each compound was added to a well of the cell plate. • 10. Plates were read for 160 sec with 1 sec intervals to obtain the data in agonist mode, then kept at 25° C. in the dark for 30 min. • 11.

The target in data set [2] is human muscarinic receptor M3 (Homo sapiens, UniProt P20309). The data set is described as follows: cell-based. The protocol:
as §1

In data set [3] the target is T1, human muscarinic receptor M2 (Homo sapiens, UniProt P08172).
T1 construct: expressed in transfected cells
T1 sequence (P08172 whole entry): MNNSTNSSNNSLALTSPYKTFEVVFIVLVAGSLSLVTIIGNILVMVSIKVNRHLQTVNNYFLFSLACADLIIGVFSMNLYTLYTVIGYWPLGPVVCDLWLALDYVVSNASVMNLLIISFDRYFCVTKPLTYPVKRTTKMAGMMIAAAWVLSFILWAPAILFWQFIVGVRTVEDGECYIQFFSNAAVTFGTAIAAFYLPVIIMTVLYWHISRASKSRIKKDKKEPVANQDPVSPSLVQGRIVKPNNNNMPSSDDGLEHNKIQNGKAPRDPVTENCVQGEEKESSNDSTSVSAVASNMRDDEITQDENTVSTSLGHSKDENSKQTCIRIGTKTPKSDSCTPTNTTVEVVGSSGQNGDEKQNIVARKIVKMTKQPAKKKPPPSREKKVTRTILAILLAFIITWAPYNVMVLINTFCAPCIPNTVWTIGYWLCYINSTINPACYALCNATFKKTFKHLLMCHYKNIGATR
The data set is described as follows: Calcium flux assay (FLIPR), CHO cells expressing human M2. It counts as cell-based. Particulars: agonist mode. Here is the method:
(§2) All cells used in the following experiments were clonal populations of Chinese Hamster Ovary (CHO) cells stably expressing the corresponding human muscarinic receptor, except for the M4 cell line, which was a population of CHO cells transiently transfected with the human M4 receptor. Muscarinic agonism and antagonism of each receptor was measured by a quantitative calcium flux assay that is used for multiple classes of G-protein-coupled receptors, or GPCRs, as described elsewhere (e.g., Arkin et al., […], PMID: 22553878). Acetylcholine and atropine were used as positive controls for receptor agonism and antagonism, respectively. The procedure was as follows: • 1. Cells were thawed and cultured in cell culture medium (DMEM/F12 containing 10% FBS, 1× penicillin-streptomycin and 600 μg/ml hygromycin B) at 37° C. in 5% (v/v) CO2. • 2. One day before the assays, cells were detached using TrypLE™ and counted using a cell-counter. Only cells with >85% viability are used for the assay. • 3. […] Plates were read for 160 sec with 1 sec intervals to obtain the data in agonist mode, then kept at 25° C. in the dark for 30 min. • 11. […] Plates were read for 160 sec with 1 sec intervals, thereby measuring the ability for test compounds to antagonize the activation of muscarinic receptors by Ach.

A further data set concerns the target T2, human M4 receptor (Homo sapiens, UniProt P08173).
T2 construct: expressed in transfected cells; host or cells: CHO (transient transfection)
The data set is described as follows: Calcium flux assay (FLIPR), CHO cells transiently transfected with human M4. It counts as cell-based. As to conditions: agonist mode. Here is the method: All cells used in the following experiments were clonal populations of Chinese Hamster Ovary (CHO) cells stably expressing the corresponding human muscarinic receptor, except for the M4 cell line, which was a population of CHO cells transiently transfected with the human M4 receptor. […] The procedure was as follows: • 1. Cells were thawed and cultured in cell culture medium (DMEM/F12 containing 10% FBS, 1× penicillin-streptomycin and 600 μg/ml hygromycin B) at 37° C. in 5% (v/v) CO2. • 2. One day before the assays, cells were detached using TrypLE™ and counted using a cell-counter. […] 12,000 cells/well were seeded in 30 μl/well culture medium in a 384-well cell plate and incubated overnight at 37C, 5% (v/v) CO2. • 4. On the assay day, 2× dye solution was prepared following the manual of the FLIPR® Calcium 6 Assay Kit: • i. The dye was diluted with assay buffer (20 mM HEPES in 1× HBSS, PH 7.4); • ii. Probenecid was added to a final concentration of 5 mM; • iii. Cells were vortexed vigorously for 1-2 minutes. • 5. Medium was removed from the cell plate by flicking the cell plate on paper towels. • 6. 10 μl of assay buffer and 10 μl of 2× dye solution was added to each well of the cell plate. • 7. […] Plates were read for 160 sec with 1 sec intervals to obtain the data in agonist mode, then kept at 25° C. in the dark for 30 min. • 11.

The target of data set [4] is T3, human muscarinic receptor M5 (Homo sapiens, UniProt P08912).
T3 construct: expressed in transfected cells
T3 sequence (P08912 whole entry): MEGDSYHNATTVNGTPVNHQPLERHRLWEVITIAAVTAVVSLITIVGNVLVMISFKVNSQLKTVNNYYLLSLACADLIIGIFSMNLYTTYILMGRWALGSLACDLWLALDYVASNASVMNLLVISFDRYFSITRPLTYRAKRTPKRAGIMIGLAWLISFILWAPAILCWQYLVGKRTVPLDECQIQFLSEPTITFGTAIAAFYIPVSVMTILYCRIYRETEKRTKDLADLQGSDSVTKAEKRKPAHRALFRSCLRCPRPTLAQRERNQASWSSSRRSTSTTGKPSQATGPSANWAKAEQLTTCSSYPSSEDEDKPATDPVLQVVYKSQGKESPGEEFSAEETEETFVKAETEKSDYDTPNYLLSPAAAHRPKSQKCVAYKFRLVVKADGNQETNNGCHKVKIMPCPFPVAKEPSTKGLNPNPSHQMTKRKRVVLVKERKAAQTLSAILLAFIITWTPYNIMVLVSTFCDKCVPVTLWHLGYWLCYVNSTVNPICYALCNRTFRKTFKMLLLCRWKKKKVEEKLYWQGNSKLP
The data set is described as follows: Calcium flux assay (FLIPR), CHO cells expressing human M5. It counts as cell-based. As to conditions: agonist mode. Here is the method:
as §2

For data set [5], the system named is Cerep87 Safety Panel receptors. The experiment in a line: Cerep87 Safety Panel (Eurofins), whole panel statements. It counts as binding. Particulars: all receptors of the Cerep87 panel.
A further data set deals with tear production. The data set is described as follows: THP-induced dry eye in dogs: tear production. It counts as in vivo, Beagles. Particulars: oral, 2 mpk alone, 4 hours post administration.
For another data set, the system named is dizziness. Particulars: humans; 3 mg THP immediate release at 0, 2, 4 hours versus 9 mg at once. Here is the method: Experimental Design: All of the data collected in this example were run in a double-blind, randomized, placebo controlled setting of normal healthy adults. […] Dizziness was measured by the visual analog scale (VAS), a common clinical measure of dizziness.

Each structure is given as a SMILES string. pEC50: −log10 of the molar value.

Chain of human muscarinic receptor M1 (P11229 whole entry): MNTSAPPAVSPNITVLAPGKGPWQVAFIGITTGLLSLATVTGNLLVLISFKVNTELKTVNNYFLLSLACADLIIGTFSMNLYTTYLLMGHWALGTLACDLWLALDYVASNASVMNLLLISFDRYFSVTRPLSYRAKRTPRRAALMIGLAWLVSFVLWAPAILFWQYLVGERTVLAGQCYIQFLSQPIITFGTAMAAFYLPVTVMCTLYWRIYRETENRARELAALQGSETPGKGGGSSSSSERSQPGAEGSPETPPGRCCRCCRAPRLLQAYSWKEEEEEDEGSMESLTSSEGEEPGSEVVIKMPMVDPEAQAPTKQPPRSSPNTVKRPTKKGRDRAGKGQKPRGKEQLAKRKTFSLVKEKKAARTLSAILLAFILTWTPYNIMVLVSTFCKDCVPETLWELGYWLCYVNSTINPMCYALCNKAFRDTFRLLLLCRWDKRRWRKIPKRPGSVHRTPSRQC
Chain of human muscarinic receptor M3 (P20309 whole entry): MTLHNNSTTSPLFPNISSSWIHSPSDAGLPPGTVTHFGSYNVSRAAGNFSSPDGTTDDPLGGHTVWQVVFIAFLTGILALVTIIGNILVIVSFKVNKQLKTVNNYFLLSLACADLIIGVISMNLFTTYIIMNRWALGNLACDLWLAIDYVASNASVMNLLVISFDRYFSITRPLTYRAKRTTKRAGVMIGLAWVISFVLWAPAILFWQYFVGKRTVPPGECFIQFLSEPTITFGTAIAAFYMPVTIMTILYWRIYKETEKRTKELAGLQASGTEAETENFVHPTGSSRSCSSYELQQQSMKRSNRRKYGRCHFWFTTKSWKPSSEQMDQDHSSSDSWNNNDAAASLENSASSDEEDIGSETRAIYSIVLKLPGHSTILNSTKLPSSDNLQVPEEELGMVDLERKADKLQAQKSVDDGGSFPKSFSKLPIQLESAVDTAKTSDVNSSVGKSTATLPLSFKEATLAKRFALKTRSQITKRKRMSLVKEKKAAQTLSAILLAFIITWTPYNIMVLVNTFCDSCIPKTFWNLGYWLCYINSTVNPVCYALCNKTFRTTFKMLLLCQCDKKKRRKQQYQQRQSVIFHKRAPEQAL
T2 sequence (P08173 whole entry): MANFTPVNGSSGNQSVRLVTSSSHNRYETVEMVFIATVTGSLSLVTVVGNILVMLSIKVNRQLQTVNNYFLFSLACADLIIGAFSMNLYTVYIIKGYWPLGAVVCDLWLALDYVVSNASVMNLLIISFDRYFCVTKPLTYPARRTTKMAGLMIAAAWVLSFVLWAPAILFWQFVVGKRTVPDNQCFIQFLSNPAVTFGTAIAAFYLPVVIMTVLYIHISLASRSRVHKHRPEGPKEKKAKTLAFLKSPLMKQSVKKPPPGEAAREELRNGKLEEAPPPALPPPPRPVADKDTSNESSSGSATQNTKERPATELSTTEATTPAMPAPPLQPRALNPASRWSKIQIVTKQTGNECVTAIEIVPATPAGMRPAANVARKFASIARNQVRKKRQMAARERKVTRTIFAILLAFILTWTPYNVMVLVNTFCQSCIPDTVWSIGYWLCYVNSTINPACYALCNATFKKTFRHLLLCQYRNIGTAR

In the case of `C[C@H](C[N+](C)(C)C)OC(N)=O.[Cl-]` [(R)-BTC, (R)-bethanechol, reference compound], the pEC50 in data set [1] is less than 5.00; in data set [2] it was 5.12; in data set [3] it was less than 5.00; on human M4 receptor, less than 5.00; in data set [4], less than 5.00. Also, in data set [5], the “signal at any receptor of the panel” value is on record as less than 50%.
Regarding `OC(CCN1CCCCC1)(c1ccccc1)C1CCCCC1` (centres unmarked) [THP, trihexyphenidyl], the “% Baseline tear production” value in the data set on tear production came to 89.1%. For the same compound, in the data set on dizziness, the “dizziness (VAS)” value was “significantly reduced dizziness”.
